Consider one compound from US11242335B2, “Fluorine-substituted indazole compounds and uses thereof” (SUNSHINE LAKE PHARMA CO., LTD., priority 2017, dated 2022).

By pEC50 is commonly meant −log10 of the EC50, conventionally taken in molar units.

pEC50: −log10 of the molar value.

The assay concerns the target T1, soluble guanylate cyclase (sGC) expressed by CHO-K1-Rat sGC monoclonal cell line (Rattus norvegicus, UniProt P19686+P20595).
T1 construct: expressed in transfected cells; host or cells: CHO-K1
T1 sequence (P19686 1-690): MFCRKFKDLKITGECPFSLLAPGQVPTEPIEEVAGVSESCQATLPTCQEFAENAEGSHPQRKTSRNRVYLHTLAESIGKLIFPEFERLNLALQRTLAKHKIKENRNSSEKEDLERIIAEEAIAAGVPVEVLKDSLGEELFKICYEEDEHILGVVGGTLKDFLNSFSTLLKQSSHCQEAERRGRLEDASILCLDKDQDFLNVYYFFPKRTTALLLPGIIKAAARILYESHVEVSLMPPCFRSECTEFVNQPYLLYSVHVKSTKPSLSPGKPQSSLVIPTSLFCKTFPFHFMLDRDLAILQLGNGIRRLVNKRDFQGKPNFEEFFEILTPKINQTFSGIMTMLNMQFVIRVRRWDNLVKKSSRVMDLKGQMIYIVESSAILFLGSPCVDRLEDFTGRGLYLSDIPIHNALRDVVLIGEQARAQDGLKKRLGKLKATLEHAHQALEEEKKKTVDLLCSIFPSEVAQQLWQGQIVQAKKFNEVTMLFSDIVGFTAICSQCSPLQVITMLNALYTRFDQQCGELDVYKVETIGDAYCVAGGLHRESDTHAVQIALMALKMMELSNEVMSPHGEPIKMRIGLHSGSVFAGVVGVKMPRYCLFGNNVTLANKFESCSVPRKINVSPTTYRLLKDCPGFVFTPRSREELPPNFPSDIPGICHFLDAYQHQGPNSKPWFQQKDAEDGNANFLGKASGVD
T1 sequence (P20595 1-619): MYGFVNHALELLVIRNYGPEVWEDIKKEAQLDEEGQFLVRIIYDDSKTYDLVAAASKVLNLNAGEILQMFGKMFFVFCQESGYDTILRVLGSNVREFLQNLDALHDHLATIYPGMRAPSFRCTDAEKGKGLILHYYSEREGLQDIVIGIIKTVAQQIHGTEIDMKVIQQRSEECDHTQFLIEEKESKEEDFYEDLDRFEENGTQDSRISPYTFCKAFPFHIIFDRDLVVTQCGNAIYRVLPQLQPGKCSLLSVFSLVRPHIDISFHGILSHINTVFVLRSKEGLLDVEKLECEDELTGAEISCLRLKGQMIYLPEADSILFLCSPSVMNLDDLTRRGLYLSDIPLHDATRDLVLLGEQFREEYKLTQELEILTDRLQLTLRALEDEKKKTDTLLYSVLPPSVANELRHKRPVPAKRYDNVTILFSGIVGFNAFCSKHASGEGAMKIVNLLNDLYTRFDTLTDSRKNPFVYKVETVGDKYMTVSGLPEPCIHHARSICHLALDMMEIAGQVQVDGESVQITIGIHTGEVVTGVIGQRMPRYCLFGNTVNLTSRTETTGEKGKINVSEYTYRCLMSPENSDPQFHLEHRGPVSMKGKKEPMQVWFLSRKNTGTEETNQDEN
Description: Effect on recombinant guanylate cyclase reporter cell line (CHO-K1-Rat sGC, Cisbio cGMP HTRF). As to conditions: activating soluble guanylate cyclase. It counts as cell-based. The text has this: Transfection of Soluble Guanylate Cyclase (sGC) gene into CHO-K1 cells and selection of cells with stably and highly expressed sGC: Rat sGCα1 and Rat sGCβ1 Genes were synthesized, and then pcDNA3.1(+)-rat sGCα1 and pcDNA3.1/Hygro (+)-rat sGCβ1 plasmid were constructed; the plasmid was co-transfected into CHO-K1 cells, and a positive clone cell line stably expressing CHO-K1-Rat sGC was selected using the Cisbio cGMP HTRF assay kit.
The activity of the compound on the CHO-K1-Rat sGC monoclonal cell line was determined: The CHO-K1-Rat sGC monoclonal cell line was cultured, and used for test operation at degree of fusion of about 70% to 90%. The cells were resuspended in complete medium after TrypLE digestion; the cells were inoculated in a 384-well (low volume tissues culture treated) cell culture plate at a seeding density of 7500/well in 25 μL of complete medium and incubated at 37° C. in 5% CO2 atmosphere for 20 hours; the test compounds were dissolved and dilute with DMSO to give 10 concentration gradients (2× working concentration); 384-well cell culture plates were centrifugated (200 g) for 3 seconds by inversion at RT, medium was removed; The test compounds in each different concentration gradient and corresponding reagent were added into each cell well according to the detection process of Cisbio cGMP HTRF assay kit. The data were collected with Envision HTRF detector and the EC50 value of each compound in activating soluble guanylate cyclase was calculated.
For orientation: Time-resolved FRET reads energy transfer from a long-lived donor to a nearby acceptor.

As for `COC(=O)Nc1c(N)nc(-c2nn(Cc3ccccc3F)c3c(F)cccc23)nc1N` [Example 10, methyl (4,6-diamino-2-(7-fluoro-1-(2-fluorobenzyl)-1H-indazol-3-yl)pyrimidin-5-yl)carbamate], the pEC50 is 6.43.
